Values joined by “and” are separate entries in the source; they are usually repeats but may differ in a detail not shown here. Equal values may be shown once. “Also recorded” adds a separate entry of the source.

Consider eleven compounds from publication PMC8305717, “4-Phenethyl-1-Propargylpiperidine-Derived Dual Inhibitors of Butyrylcholinesterase and Monoamine Oxidase B” (Molecules, 2021).

Data set [1] deals with MAO-B. The conditions noted are these: binds covalently to N5 of FAD, crystal complex; cited from earlier work.
In data set [2] the target is T1, hAChE (Homo sapiens, UniProt P22303).
T1 construct: gift from Xavier Brazzolotto, Florian Nachon and José Dias (IRBA, Brétigny-sur-Orge, France)
Put plainly: Ellman method cholinesterase assay, hAChE. Format: biochemical. To be noted: residual activity at 100 µM compound; 5-min pre-incubation; RA above 50% considered inactive; read-out: RA ± SD (%) at 100 µM, hAChE. How it is done:
(§1) Inhibitory potencies against human (h)AChE and hBChE were determined using the Ellman method and inhibitory potencies against hMAO-A and hMAO-B were determined with horseradish peroxidase (HRP)-Amplex Red coupled assay.
(§2) The inhibitory potencies of the compounds against the ChEs were determined using the Ellman method. 5,5′-Dithiobis (2-nitrobenzoic acid) (Ellman’s reagent; DTNB, St. Louis, MO, USA), butyrylthiocholine iodide, and acetylthiocholine iodides were from Sigma-Aldrich. Recombinant hAChE and hBChE at the stock concentration of 16.5 mg/mL and 14.5 mg/mL, respectively, were kindly donated by Xavier Brazzolotto, Florian Nachon, and José Dias (IRBA, Brétigny-sur-Orge, France). The enzyme solutions were prepared by dilution of the concentrated stocks in 0.1 M phosphate-buffered solution (pH 8.0). The reactions were carried out in a final volume of 300 µL of 0.1 M phosphate-buffered solution, pH 8.0, containing 370 µM DTNB, 500 μM butyrylthiocholine/acetylthiocholine, and approximately 1 nM or 50 pM hBChE or hAChE, respectively. The reactions were started by the addition of the substrate after 5-min pre-incubation at room temperature. For time-dependency measurements of hBChE inhibition, the pre-incubation time was varied (i.e., 1 min, 5 min, 15 min, 30 min). The final content of the organic solvent (DMSO) was always 1%. The formation of the yellow 5-thio-2-nitrobenzoate anion as a result of the reaction of DTNB with the thiocholines was monitored for 1 min as the change in absorbance at 412 nm, using a 96-well microplate reader (SynergyTM H4; BioTek Instruments, Inc., USA). The initial velocities in the presence (vi) and the absence (vo) of the test compounds were calculated. The inhibitory potencies were expressed as the residual activities, according to RA = (vi − b)/(vo − b), where b is the blank value using phosphate buffer without ChEs. […] The IC50 values were obtained by plotting the residual ChEs activities against the applied inhibitor concentrations, with the experimental data fitted to a four-parameter logistic function (GraphPad Prism 9.0; GraphPad Software Inc., San Diego, CA, USA).

Data set [3] has as its target T2, hBChE (Homo sapiens, UniProt P06276).
T2 construct: gift from Xavier Brazzolotto, Florian Nachon and José Dias (IRBA, Brétigny-sur-Orge, France)
Put plainly: Ellman method cholinesterase assay, hBChE. Format: biochemical. The conditions noted are these: 5-min pre-incubation; for RA ± SD (%) at 100 µM, hBChE: residual activity at 100 µM compound, RA above 50% considered inactive; for IC50: 3 independent experiments, read-out: IC50 ± SEM, hBChE. How it is done:
as §1, §2

Data set [4] has as its target T3, hMAO-A (Homo sapiens, UniProt P21397).
T3 construct: purchased Sigma Aldrich; host or cells: BTI-TN-5B1-4 insect cells
T3 sequence (P21397 1-527): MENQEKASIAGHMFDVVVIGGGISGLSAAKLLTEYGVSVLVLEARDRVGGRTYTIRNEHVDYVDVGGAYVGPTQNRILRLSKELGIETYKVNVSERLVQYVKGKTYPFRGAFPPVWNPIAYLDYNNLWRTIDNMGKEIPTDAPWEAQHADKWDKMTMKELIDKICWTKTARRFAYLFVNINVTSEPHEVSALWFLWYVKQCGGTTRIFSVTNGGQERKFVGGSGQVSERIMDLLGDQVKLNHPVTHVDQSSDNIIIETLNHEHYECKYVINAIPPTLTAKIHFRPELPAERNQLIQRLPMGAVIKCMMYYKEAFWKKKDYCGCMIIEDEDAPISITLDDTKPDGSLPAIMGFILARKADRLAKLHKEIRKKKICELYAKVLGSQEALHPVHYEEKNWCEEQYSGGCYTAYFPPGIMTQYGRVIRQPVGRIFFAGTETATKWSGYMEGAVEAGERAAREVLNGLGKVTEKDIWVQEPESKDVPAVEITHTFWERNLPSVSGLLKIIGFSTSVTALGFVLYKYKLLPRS
Put plainly: HRP-Amplex Red coupled fluorimetric assay, hMAO-A. Format: biochemical. The conditions noted are these: 15 min incubation at 37 °C; for remaining activity at 100 µM: 0.25 h, residual activity at 100 µM compound, RA above 50% considered inactive, read-out: RA ± SD (%) at 100 µM, hMAO-A; for IC50: 3 independent experiments, read-out: IC50 ± SEM, hMAO-A. Here is the method: as §1
(§3) The effects of the test compounds on hMAO were investigated using a fluorimetric assay. Recombinant hMAO, expressed in BTI-TN-5B1-4 insect cells, p-tyramine hydrochloride, and horse-radish peroxidase type II were purchased from Sigma Aldrich, whereas Amplex Red was synthesized as reported previously.
(§4) In brief, 100 µL 50 mM sodium phosphate buffer (pH 7.4, 0.05 vol.% Triton X-114) containing the compounds or the reference inhibitors and hMAO were incubated for 15 min at 37 °C. The reaction was started by adding Amplex Red (final concentration, 250 µM), horseradish peroxidase (final activity, 2 U/mL), and p-tyramine (final concentration, 1 mM). The fluorescence increase (λex = 530 nm, λem = 590 nm) at 37 °C was monitored for 20 min. DMSO was used for control experiments. To determine the blank value (b), phosphate-buffered solution replaced the enzyme. Each measurement was performed in duplicate. The inhibitory potencies were expressed as the residual activities (RA) and IC50 values as described in Section 3.2.1. For the reversibility assay, the previously described protocol was followed.

Data set [5] deals with T4, hMAO-B (Homo sapiens, UniProt P27338).
T4 construct: purchased Sigma Aldrich; host or cells: BTI-TN-5B1-4 insect cells
T4 sequence (P27338 1-520): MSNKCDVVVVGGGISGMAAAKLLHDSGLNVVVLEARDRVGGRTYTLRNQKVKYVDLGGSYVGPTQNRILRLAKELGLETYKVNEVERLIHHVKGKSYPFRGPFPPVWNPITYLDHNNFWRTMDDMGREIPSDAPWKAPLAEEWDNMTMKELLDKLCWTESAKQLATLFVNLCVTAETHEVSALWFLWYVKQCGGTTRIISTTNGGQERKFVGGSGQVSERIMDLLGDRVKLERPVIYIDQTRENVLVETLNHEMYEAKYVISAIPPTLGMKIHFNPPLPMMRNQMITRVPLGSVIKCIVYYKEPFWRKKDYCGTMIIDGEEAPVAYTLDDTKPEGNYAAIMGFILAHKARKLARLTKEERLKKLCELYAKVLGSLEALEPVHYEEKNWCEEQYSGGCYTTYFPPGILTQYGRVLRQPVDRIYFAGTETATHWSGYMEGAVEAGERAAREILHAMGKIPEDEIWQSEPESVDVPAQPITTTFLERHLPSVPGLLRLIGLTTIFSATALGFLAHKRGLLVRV
Put plainly: HRP-Amplex Red coupled fluorimetric assay, hMAO-B. The conditions noted are these: 15 min incubation at 37 °C; 3 independent experiments; read-out: IC50 ± SEM, hMAO-B. Format: biochemical. How it is done: as §1, §3, §4

Data set [6] addresses T4, hMAO-B. Put plainly: hMAO-B 100-fold dilution reversibility assay and IC50 shift at various pre-incubation times. Format: biochemical. The conditions noted are these: for Reversibility of hMAO-B inhibition: 100-fold dilution assay; for Time-dependence of hMAO-B inhibition (IC50 shift): various pre-incubation times. Here is the method: as §4
The reversibility was analyzed by one-way ANOVA and post-hoc comparisons were made using two-tailed Student’s t-test. p < 0.05—statistically significant. All data are means ± SEM (n = 2).
Figure 5 (A) A 100-fold dilution assay for hMAO-B inhibitors 12–14. L-Deprenyl was used as an irreversible inhibitor control; safinamide and isatin were used as reversible inhibitor controls. Data are mean values ± SEM (n = 2; each in quadruplicate): ∗, p < 0.05 (one-way ANOVA, with Bonferroni correction, followed by t-tests).

For data set [7], the target named is T2, hBChE. Put plainly: hBChE time-dependency measurements (IC50 shift, varied pre-incubation time). Format: biochemical. To be noted: pre-incubation 1, 5, 15, 30 min. How it is done: as §2
Figure 7 The IC50 shift curves for compounds 13–15 during hBChE inhibition.

T2 sequence (P06276 29-602): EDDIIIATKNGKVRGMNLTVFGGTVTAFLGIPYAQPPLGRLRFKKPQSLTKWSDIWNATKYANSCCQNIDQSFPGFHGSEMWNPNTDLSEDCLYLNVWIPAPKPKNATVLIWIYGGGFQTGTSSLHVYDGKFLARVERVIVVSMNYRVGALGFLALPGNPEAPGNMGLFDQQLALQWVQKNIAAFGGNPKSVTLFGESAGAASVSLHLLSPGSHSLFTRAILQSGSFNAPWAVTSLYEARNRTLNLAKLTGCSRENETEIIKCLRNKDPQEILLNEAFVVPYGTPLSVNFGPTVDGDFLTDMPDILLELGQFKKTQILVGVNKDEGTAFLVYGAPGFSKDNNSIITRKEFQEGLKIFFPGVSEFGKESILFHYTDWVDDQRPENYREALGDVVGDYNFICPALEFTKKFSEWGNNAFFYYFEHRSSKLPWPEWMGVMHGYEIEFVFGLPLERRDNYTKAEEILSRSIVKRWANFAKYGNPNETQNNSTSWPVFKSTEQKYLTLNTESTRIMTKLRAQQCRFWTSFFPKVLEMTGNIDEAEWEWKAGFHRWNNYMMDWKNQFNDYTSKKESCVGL
T1 sequence (P22303 32-614): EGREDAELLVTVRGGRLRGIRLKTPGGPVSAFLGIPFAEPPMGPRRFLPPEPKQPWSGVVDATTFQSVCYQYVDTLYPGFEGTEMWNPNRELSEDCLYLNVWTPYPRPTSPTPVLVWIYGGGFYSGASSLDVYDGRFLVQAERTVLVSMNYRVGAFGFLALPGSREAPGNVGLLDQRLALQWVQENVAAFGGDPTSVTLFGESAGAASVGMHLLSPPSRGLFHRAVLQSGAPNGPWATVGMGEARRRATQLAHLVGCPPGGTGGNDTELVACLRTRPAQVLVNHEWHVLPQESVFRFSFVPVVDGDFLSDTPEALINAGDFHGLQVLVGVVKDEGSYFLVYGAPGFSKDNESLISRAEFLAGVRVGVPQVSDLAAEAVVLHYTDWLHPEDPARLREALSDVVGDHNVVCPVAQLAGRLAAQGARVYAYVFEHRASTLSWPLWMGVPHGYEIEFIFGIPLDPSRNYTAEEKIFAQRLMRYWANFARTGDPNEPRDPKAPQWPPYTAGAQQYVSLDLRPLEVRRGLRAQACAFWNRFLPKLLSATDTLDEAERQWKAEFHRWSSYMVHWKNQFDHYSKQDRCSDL

As to `C#CCN1CCC(/C=C/c2ccc(F)cc2)CC1` [A], the “MAO-B inhibition, type” value in data set [1] was “potent and irreversible MAO-B inhibitor”.

With `C#CCN1CCC(/C=C/c2ccc(OC)cc2)CC1` [Compound 6, (E)-4-(4-methoxystyryl)-1-(prop-2-yn-1-yl)piperidine], the remaining activity at 100 µM is 61.9 ± 1.2% in data set [2] and 52.6 ± 0.7% in data set [4]. For the same compound, in data set [3], the “RA ± SD (%) at 100 µM, hBChE” value turned out to be 68.8 ± 0.6%.

As to `C#CCN1CCC(CCc2ccc(OC)cc2)CC1` [Compound 7, 4-(4-methoxyphenethyl)-1-(prop-2-yn-1-yl)piperidine], the remaining activity at 100 µM amounted to 73.1 ± 4.3% in data set [2] and 62.2 ± 1.8% in data set [4]. In data set [3], the “RA ± SD (%) at 100 µM, hBChE” value stood at 51.2 ± 1.6%.

With `C#CCN1CCC(CCc2cccc(OC)c2)CC1` [Compound 8, 4-(3-methoxyphenethyl)-1-(prop-2-yn-1-yl)piperidine], the remaining activity at 100 µM in data set [2] came out at 73.2 ± 8.9%; in data set [4], 59.8 ± 3.7%. Besides, in data set [3], the “RA ± SD (%) at 100 µM, hBChE” value is 55.5 ± 0.2%. The IC50 in data set [5] came out at 0.238 ± 0.0269 µM.

With `C#CCN1CCC(/C=C/c2ccc(O)cc2)CC1` [Compound 9, (E)-4-(2-(1-(prop-2-yn-1-yl)piperidin-4-yl)vinyl)phenol], the remaining activity at 100 µM in data set [2] is 65.9 ± 3.1%. Further, in data set [3], the “RA ± SD (%) at 100 µM, hBChE” value came out at 64.9 ± 2.0%. In addition, the IC50 was determined as 15.5 ± 0.9 µM in data set [4] and 12.9 ± 1.1 µM in data set [5].

`C#CCN1CCC(CCc2ccc(O)cc2)CC1` [Compound 10, 4-(2-(1-(prop-2-yn-1-yl)piperidin-4-yl)ethyl)phenol]: the remaining activity at 100 µM in data set [2] worked out at 61.4 ± 2.7%. Moreover, in data set [3], the “RA ± SD (%) at 100 µM, hBChE” value was 53.8 ± 0.6%. Besides, in data set [4], the IC50 amounted to 34 ± 5.8 µM.

Turning to `C#CCN1CCC(CCc2cccc(O)c2)CC1` [Compound 11, 3-(2-(1-(prop-2-yn-1-yl)piperidin-4-yl)ethyl)phenol], the remaining activity at 100 µM amounted to 54.7 ± 2.9% in data set [2] and 63.3 ± 0.4% in data set [4]. For the same compound, in data set [3], the “RA ± SD (%) at 100 µM, hBChE” value is on record as 72.9 ± 2.8%. Besides, in data set [5], the half-inhibitory concentration (IC50) turned out to be 52.5 ± 14.8 µM.

With `C#CCN1CCC(CCc2ccc(OC(=O)Nc3ccccc3)cc2)CC1` [Compound 12, 4-(2-(1-(prop-2-yn-1-yl)piperidin-4-yl)ethyl)phenyl phenylcarbamate], the remaining activity at 100 µM in data set [2] turned out to be 52.2 ± 1.7%. Moreover, the “RA ± SD (%) at 100 µM, hBChE” value in data set [3] was 60.2 ± 1.8%. In addition, the remaining activity at 100 µM in data set [4] worked out at 56.7 ± 0.9%. In data set [6], the “Reversibility of hMAO-B inhibition” value was “reversible” and the “Time-dependence of hMAO-B inhibition (IC50 shift)” value is on record as “absence of IC50 shift; also recorded: did not exhibit time-dependent inhibition”. The 50% inhibitory concentration (IC50) in data set [5] was found to be 9.7 ± 1.2 µM.

With `C#CCN1CCC(CCc2cccc(OC(=O)Nc3ccccc3)c2)CC1` [Compound 13, 3-(2-(1-(prop-2-yn-1-yl)piperidin-4-yl)ethyl)phenyl phenylcarbamate], the remaining activity at 100 µM in data set [2] turned out to be 51.9 ± 1.4%; in data set [4] it was 54 ± 0.4%. Besides, the IC50 in data set [3] is 4.4 ± 0.8 µM; in data set [5], 23.6 ± 3 µM. The “Time-dependence of hBChE inhibition (IC50 shift)” value in data set [7] is listed as “IC50 shift was absent”. In addition, in data set [6], the “Reversibility of hMAO-B inhibition” value was “reversible”. Besides, the “Time-dependence of hMAO-B inhibition (IC50 shift)” value in data set [6] was “absence of IC50 shift; also recorded: did not exhibit time-dependent inhibition”.

As to `C#CCN1CCC(CCc2ccc(OC(=O)N(C)CC)cc2)CC1` [Compound 14, 4-(2-(1-(prop-2-yn-1-yl)piperidin-4-yl)ethyl)phenyl ethyl(methyl)carbamate], the remaining activity at 100 µM in data set [2] came out at 66.1 ± 4.8%; in data set [4] it was 51.2 ± 1.5%. Further, the results for the IC50 in data set [3] and in data set [5] were 75.5 ± 8.4 µM and 0.181 ± 0.0287 µM, respectively. Further, in data set [7], the “Time-dependence of hBChE inhibition (IC50 shift)” value was “IC50 shift was absent”. The “Reversibility of hMAO-B inhibition” value in data set [6] is “irreversible”. Besides, the “Time-dependence of hMAO-B inhibition (IC50 shift)” value in data set [6] was “time-dependent hMAO-B inhibition”.

For `C#CCN1CCC(CCc2cccc(OC(=O)N(C)CC)c2)CC1` [Compound 15, 3-(2-(1-(prop-2-yn-1-yl)piperidin-4-yl)ethyl)phenyl ethyl(methyl)carbamate], the remaining activity at 100 µM in data set [2] came to 60.2 ± 1.8%; in data set [4] it was 69.4 ± 9.4%. Moreover, the IC50 is 8.5 µM and 4.3 µM in data set [3]; 4.3 µM and 8.5 µM in data set [5]. In addition, the “Time-dependence of hBChE inhibition (IC50 shift)” value in data set [7] is “time-dependent inhibition”.
